Test results from BigSolDB 2.1.

Conditions: 298.2 K

O=C(O)c1cccc([N+](=O)[O-])c1
Conditions	solubility (mole fraction)
in 1,4-dioxane	0.193
in 2-methyl-1-butanol	0.11
in 2-methyl-1-pentanol	0.134
in 2-pentanol	0.176
in THF	0.36
in dibutyl ether	0.0346
in diethyl ether	0.127
in diisopropyl ether	0.0591
in ethanol	0.175
in ethyl acetate	0.138
in isobutanol	0.113
in isopentanol	0.145
in isopropanol	0.17
in methanol	0.211
in methyl acetate	0.147
in n-butanol	0.146
in n-butyl acetate	0.108
in n-decanol	0.139
in n-heptanol	0.136
in n-hexanol	0.139
in n-octanol	0.144
in n-pentanol	0.143
in n-propanol	0.149
in propylene carbonate	0.0834
in sec-butanol	0.188
in tert-butanol	0.217
